Source: US20250304928A1, “AN OMEGA-TRANSAMINASE MUTANT BASED ON […] SEQUENCE RECONSTRUCTION” (priority 2021, published 2025)

Assays:
CC(=O)C(=O)O [1] = experiment: Enzyme kinetic parameters of mutant ω-transaminase Ancata-101; type: biochemical, Aspergillus terreus; settings: other: PBS 50 mM, pH 8.0, 0.01 mM PLP
C[C@@H](N)c1ccccc1 [2] = experiment: as above; type: biochemical, Aspergillus terreus; settings: other: PBS 50 mM, pH 8.0, 0.01 mM PLP
[3] = biological target: T1, Aspergillus terreus ω-transaminase mutant Ancata-101 (D5E-A12Q-I17V-S20A-T21S-E22A-T23S-A42H-I77L-T78S-T85S-L87M-R90K-D96E-Q97E-E104D-T130S-R131K-D134E-I135L-13 (Aspergillus terreus, UniProt Q0C8G1, A12Q/A174S/A195S/A246V/A313P/A42H/D134E/D153E/D5E/D96E/E104D/E22A/E248R/E323S/F250N/F258V/G292D/H210N/I135L/I175M/I17V/I295V/I77L/INS138N/INS325KKSG/L87M/M288K/N245D/N322E/N325S/Q236E/Q294K/Q97E/R131K/R266Q/R324A/R90K/S20A/T130S/T21S/T23S/T284S/T78S/T85S/V143I/V157T/V162I/V163I/V188T)); experiment: as above; type: biochemical
T1 construct: ancestral reconstruction Ancata-101
Protocol: (§1) The enzyme activity of wild type and mutant ω-transaminase at different concentrations was determined by enzyme activity assay. The reaction rates V for different substrates as well as different substrate concentrations [S] were brought into the Michaelis-Menten equation V=Vmax×[S]/(Km+[S]), nonlinear curve fit was performed using Origin 8.0 software, and the enzyme kinetic parameters Km and Vmax were calculated for wild type and mutants; the conversion number kcat and catalytic efficiency kcat/Km were calculated for wild type and mutants from the equation kcat=Vmax/[E], where [E] was the molar concentration of the enzyme.

[4] = biological target: T2, Aspergillus terreus ω-transaminase mutant Ancata-124 (D5E-A12Q-I17V-S20A-T21S-E22A-T23S-A42H-I77L-T78S-T85A-R90K-D96E-Q97E-E104D-T130S-R130K-I135L-138insN-V143I (Aspergillus terreus, UniProt Q0C8G1, A12Q/A195S/A246V/A313P/A42H/D153E/D5E/D96E/E104D/E22A/E248R/E323S/F250N/F258V/G292D/H210N/I135L/I17V/I295V/I77L/INS138N/INS325KS/L263M/M154V/M288K/N245D/N322E/N325S/Q236E/Q294K/Q97E/R131K/R266Q/R324A/R90K/S20A/T130S/T21S/T23S/T284S/T78S/T85A/V143I/V157T/V162I/V163I)); experiment: Enzyme kinetic parameters of mutant ω-transaminase Ancata-124; type: biochemical
T2 construct: ancestral reconstruction Ancata-124
Protocol: as §1

[5] = biological target: Aspergillus terreus ω-transaminase, wild type (WT-AT), SEQ ID NO. 2 (Aspergillus terreus, UniProt Q0C8G1); experiment: Enzyme kinetic parameters of wild type ω-transaminase (WT-AT); type: biochemical; settings: PBS 50 mM, pH 8.0, 0.01 mM PLP
Protocol: The wild-type ω-transaminase from Aspergillus terreus has an amino acid sequence as shown in SEQ ID NO. 2, and has a gene sequence as shown in SEQ ID NO. 1.
as §1

CC(=O)C(=O)O [6] = experiment: Enzyme kinetic parameters of mutant ω-transaminase Ancata-124; type: biochemical, Aspergillus terreus; settings: other: PBS 50 mM, pH 8.0, 0.01 mM PLP, 25.0 °C
C[C@@H](N)c1ccccc1 [7] = experiment: as above; type: biochemical, Aspergillus terreus; settings: other: PBS 50 mM, pH 8.0, 0.01 mM PLP, 25.0 °C

## Aspergillus terreus ω-transaminase mutant Ancata-101 (D5E-A12Q-I17V-S20A-T21S-E22A-T23S-A42H-I77L-T78S-T85S-L87M-R90K-D96E-Q97E-E104D-T130S-R131K-D134E-I135L-138insN-V143I-D153E-V157T-V162I-V163I-A174S-I175M-V188T-A195S-H210N-Q236E-N245D-A246V-E248R-F250N-F258V-R266Q-T284S-M288K-G292D-Q294K-I295V-A313P-N322E-E323S-R324A-N325S-325insKKSG), SEQ ID NO. 4 (Aspergillus terreus NIH2624; A12Q/A174S/A195S/A246V/A313P/A42H/D134E/D153E/D5E/D96E/E104D/E22A/E248R/E323S/F250N/F258V/G292D/H210N/I135L/I175M/I17V/I295V/I77L/INS138N/INS325KKSG/L87M/M288K/N245D/N322E/N325S/Q236E/Q294K/Q97E/R131K)
CC(=O)C(=O)O [1]
  Km: 1150 ± 20 µM
C[C@@H](N)c1ccccc1 [2]
  Km: 280 ± 30 µM

## C[C@@H](N)c1ccccc1 [α-MBA, (R)-(+)-α-methylbenzylamine]
[3]; in words, versus wild type
  Km (α-MBA) compared with wild type: slightly higher than that of the wild type
[4]; in words, versus wild type
  Km (α-MBA) compared with wild type: slightly higher than that of the wild type

## CC(=O)C(=O)O [pyruvate, pyruvic acid]
[5]
  kcat (pyruvate): 0.50 ± 0.01 s⁻¹
  kcat/Km (pyruvate): 2220 M⁻¹ s⁻¹
[5]; read-out: Km (pyruvate)
  Km: 230 ± 20 µM
[3]; PBS 50 mM, pH 8.0, 0.01 mM PLP
  kcat (pyruvate): 1.50 ± 0.03 s⁻¹
  kcat/Km (pyruvate): 1300 M⁻¹ s⁻¹
[3]; in words, versus wild type
  catalytic efficiency for pyruvic acid compared with wild type: lower than that of the wild type
[4]; PBS 50 mM, pH 8.0, 0.01 mM PLP
  kcat (pyruvate): 0.74 ± 0.03 s⁻¹
  kcat/Km (pyruvate): 790 M⁻¹ s⁻¹
[4]; in words, versus wild type
  catalytic efficiency for pyruvic acid compared with wild type: lower than that of the wild type

## Aspergillus terreus ω-transaminase mutant Ancata-124 (D5E-A12Q-I17V-S20A-T21S-E22A-T23S-A42H-I77L-T78S-T85A-R90K-D96E-Q97E-E104D-T130S-R130K-I135L-138insN-V143I-D153E-M154V-V157T-V162I-V163I-A195S-H210N-Q236E-N245D-A246V-E248R-F250N-F258V-L263M-R266Q-T284S-M288K-G292D-Q294K-I295V-A313P-N322E-E323S-R324A-N325S-325insKS), SEQ ID NO. 6 (Aspergillus terreus NIH2624; A12Q/A195S/A246V/A313P/A42H/D153E/D5E/D96E/E104D/E22A/E248R/E323S/F250N/F258V/G292D/H210N/I135L/I17V/I295V/I77L/INS138N/INS325KS/L263M/M154V/M288K/N245D/N322E/N325S/Q236E/Q294K/Q97E/R131K/R266Q/R324A/)
CC(=O)C(=O)O [6]
  Km: 930 ± 10 µM
C[C@@H](N)c1ccccc1 [7]
  Km: 280 ± 10 µM
